Laboratory results reported in patent US11771685B2, “Compounds for the treatment of neurological or mitochondrial diseases” (MUSC FOUNDATION FOR RESEARCH DEVELOPMENT, priority 2018, dated 2023).
pEC50: −log10 of the molar value.

Key:
[1] = tested on: HT22 cells; assay: HT22 oxytosis (glutamate-induced cell death) neuroprotection assay; type: cell-based, mouse; details: 10 mM Glu
Protocol: The HT22 murine hippocampal cell system was chosen as an initial phenotypic screen for neuroprotective efficacy (Andreux et al., 2013; Andreux et al., 2014; Ohlow et al., 2017; Schubert and Maher, 2012). HT22 cells exposed to high extracellular Glu ([…]) undergo oxytosis, a non-apoptotic programmed cell death involving glutathione (GSH) depletion followed by ROS accumulation, oxidative damage, and a cytotoxic signaling cascade (Tan et al., 2001). Glu blocks the −xC cystine antiporter, causing (Tan et al., 2001) cells to accumulate severe oxidative stress, mitochondrial depolarization, disrupted mitochondrial morphology, and Ca^2+ influx (Tan et al., 2001; Yang et al., 2011; Cheng et al., 2013—cellular events that may occur in neurological diseases, including epilepsy. Thus, the immortalized HT22 cell line is a well-established model of neuronal oxidative stress (Sagara and Schubert, 1998; Matsumoto et al., 1996; Albrecht et al., 2010; Ha and Park, 2006; van Leyen et al., 2005; Tobaben et al., 2011), and a verified model of neurodegeneration to screen for potential neuroprotective drugs (Albrecht et al., 2010; van Leyen et al., 2008; Lewerenz et al., 2009; Lewerenz et al., 2003).
Consistent with that work, most of the 2-amino compounds achieved protection of HT22 cells against glutamate-induced oxytosis in the nM to μM range. […] Neuroprotection based on relative cell viability compared to +Glu and −Glu control cells was measured.
The HT22 neuronal cell line is a subclone of HT4, derived from the mouse hippocampus (Morimoto and Koshland, 1990). […] The HT22 cells used in this study were kindly provided by Dr. David Schubert (The Salk Institute for Biological Studies, La Jolla, CA, USA). The cells were grown in Dulbecco's Modified Eagle's Medium (DMEM/high glucose) supplemented with 10% fetal bovine serum (Hyclone) and 5 mL of antibiotic-antimycotic (Amphotericin B, Penicillin, and Streptomycin; Invitrogen) at 37° C. in 5% CO2.
HT-22 cells were seeded onto 96-well plates at 2.5×10^3 cells per well in 75 μL of medium and maintained at 37° C. in 5% CO2 overnight prior to the initiation of experimental treatments. For glutamate toxicity testing, cells were subsequently treated with 25 μL of medium containing glutamate (monosodium glutamate, Sigma, 1 M stock concentration in media, to achieve a final concentration of 10 mM) plus compound (stock in DMSO) and maintained at 37° C. in 5% CO2 for 24 hr. CellTiter-Blue® (resazurin cell viability assay reagent) was then added to each well at a final concentration of 0.125 mg/mL. The mixture was allowed to incubate for 2-4 hr until sufficient color change occurred. Cell viability was measured as a function of resorufin fluorescence intensity using a Tecan M200 Pro spectrophotometer, 560 nm/590 nm (excitation/emission). Cell viability was calculated as a percentage compared with untreated controls. EC50s were determined using GraphPad Prism's “log(inhibitor) vs. normalized response-Variable slope” function. Morphology of HT22 cells following treatments was determined by phase-contrast microscopy.
Statistical analyses were performed with GraphPad Prism 6 software. For the in vitro HT22 oxytosis assay, dose-response data were fit using GraphPad Prism's log(inhibitor) vs normalized response-variable slope parameters to determine EC50 values and 95% confidence intervals. For the zebrafish locomotive anti-seizure activity data, multiple comparisons were made using a one-way analysis of variance (ANOVA) with a Kruskal-Wallis Test, followed by the Dunn's Method to determine significant differences between all pairs or between control and experimental groups using the Dunn Method for Joint Ranking. Differences were considered statistically significant when p<0.05. Data from zebrafish experiments are represented as scatter dot plots of individual measurements, with means±standard deviation indicated by bars.

[2] = tested on: Zebrafish larvae; assay: In vivo toxicology in zebrafish larvae
Protocol: Zebrafish larvae, 7 days post-fertilization (dpf), were exposed to compounds at 20, 15, 10, and 5 μM, six larvae per compound. Animals were observed 1, 5, and 24 hr after dosing for overt toxicity (altered survival, morbidity, morphological deformity). Heart rate, behavior, and startle response were monitored at each time point.
Zebrafish (AB strain) were obtained from the Zebrafish International Resource Center (supported by P40 RR012546 from NIH—NCRR). Zebrafish were maintained and crossed according to standard methods (Westerfield, 2000). Fertilized eggs were collected and placed in E3 embryo medium and positioned in an incubator set at 28.5° C. with a 14/10-hr light/dark cycle (Kimmel et al., 1995). To determine the lethal dose of each compound, 96-well plates containing one zebrafish (7 days post-fertilization, dpf) per well in 100 μL of tank water were used. 100 μL of each compound (0.5-15 μM) was added to each well for 12 animals (one row) for a final volume of 200 μL. One row of larvae was used as dimethyl sulfoxide (DMSO)-only controls. […] All zebrafish studies were approved by the Medical University of South Carolina Institutional Animal Care and Use Committee (#180278) and performed in accordance with the guidelines.
Using a 96-well plate, 7 dpf zebrafish were placed one per well with 100 μL of tank water. 100 μL of each compound was then added to each well for 12 animals (one row) for a final volume of 200 μL. One row of zebrafish larvae was used as DMSO only controls.

[3] = Liver microsome stability; type: in vitro ADME; details: in vitro; for half-life: liver microsomes, read-out: Liver microsome stability (t1/2)
[4] = In vivo pharmacokinetics in CD-1 mice; details: male, CD-1, mouse, plasma, ip, 20 mg/kg, intraperitoneal 20 mg/kg, 5% DMSO: 95% neobee
[5] = Mus musculus, HT-22, 24 h, HT22 cells, 24 hr, 95% CI in parentheses

CCC#CCNC1=CC(=O)c2ccccc2C1=O [Compound 3, 2-(Pent-2-yn-1-ylamino)naphthalene-1,4-dione]
pEC50 [1, 5]: 6.00 | concentration lethal/toxic at 24 hr ([2]; 7 dpf larvae, 24 hr): above 5 μM | Liver microsome stability (t1/2) ([3]; listed as NT-181): >1 h | half-life [3]: > 1 h | AUC(0-inf) [4]: 478 ng·h/mL | Cmax [4]: 147 ng/mL | MRT inf [4]: 4.2 h | Tmax [4]: 1 h

CC(C)CCNC1=CC(=O)c2ccccc2C1=O [Compound 17, 2-(Isopentylamino)naphthalene-1,4-dione]
pEC50 ([1]; Mus musculus, HT-22, HT22 cells): < 4.92 | Liver microsome stability (t1/2) ([3]; listed as NT-102): >1 h | half-life [3]: > 1 h | AUC(0-inf) [4]: 1730 ng·h/mL | Cmax [4]: 320 ng/mL | MRT inf [4]: 4.39 h | Tmax [4]: 1 h

CC(C)CCOC1=CC(=O)c2ccccc2C1=O [Compound 25, 2-(Isopentyloxy)naphthalene-1,4-dione]
pEC50 ([1]; HT22 cells, 24 hr, 95% CI in parentheses): 7.62 | pEC50 [1, 5]: ~7.62 | survival ([2]; 24 hr, highest concentrations): ⅔ | concentration with no overt toxicity ([2]; AB, zebrafish, in vivo): ≤ 10 µM
